Experimental data published in ChEMBL document CHEMBL1137798, “Evaluation of natural products as inhibitors of human immunodeficiency virus type 1 (HIV-1) reverse transcriptase” (J Nat Prod, 1991).
Counter-ions that a name gives are not always drawn.

How the values were obtained:
[1] = target: T1, Human immunodeficiency virus type 1 reverse transcriptase (Human immunodeficiency virus 1, UniProt Q72547)
[2] = target: Human immunodeficiency virus type 1 reverse transcriptase (Human immunodeficiency virus 1) (UniProt Q72547); assay: Inhibition of HIV1 RT at 200 ug/ml
[3] = target: T1, Human immunodeficiency virus type 1 reverse transcriptase; assay: Inhibition of HIV1 RT using poly A oligo(dT) template primer

Q: Which IC50 ([1]; read-out: IC50 (converted)) does the source give for COc1cc2c(ccc3c4cc(OC)c(OC)cc4cnc23)cc1O here?
A: Its IC50 is > 596 µM.

Q: What about the inhibition [2] of the same molecule?
A: Its inhibition is < 10%.

Q: What does the source list for CC[C@H]1CN2CCc3cc(OC)c(OC)cc3[C@@H]2C[C@@H]1C[C@H]1NCCc2cc(O)c(OC)cc21 [CEPHAELINE DIHYDROCHLORIDE]?
A: IC50 ([1]; read-out: IC50 (converted)): > 371 µM; inhibition [2]: 20%

Q: C/C=C1/C[N+]2(C)CC[C@@]34c5ccccc5N[C@]32CCC1C4(CO)C(=O)OC (some centres not stated) [ECHITAMINE CHLORIDE] was tested. Which IC50 ([1]; read-out: IC50 (converted)) did it give?
A: Its IC50 is > 494 µM.

Q: What about the inhibition [2] of the same molecule?
A: The inhibition was < 10%.

Q: For COc1cc2c(ccc3c4cc(OC)c(OC)cc4c[n+](C)c23)cc1O [FAGARONINE], which IC50 ([1]; read-out: IC50 (converted)) is on record?
A: Its IC50 is 46.7 µM.

Q: And the IC50 [3]?
A: Its IC50 is 25.9 µM.

Q: Which IC50 ([1]; read-out: IC50 (converted)) does the source give for COc1ccc2c(c1O)-c1c(O)c(OC)cc3c1[C@H](C2)[N+](C)(C)CC3 [MAGNOFLORINE CHLORIDE] here?
A: Its IC50 is > 529 µM.

Q: What about the inhibition [2] of the same molecule?
A: Its inhibition is < 10%.

Q: Which IC50 ([1]; read-out: IC50 (converted)) does the source give for COc1cc2c[n+](C)c3c4cc5c(cc4ccc3c2cc1OC)OCO5 [NITIDINE CHLORIDE] here?
A: The IC50 was < 130 µM.

Q: And the IC50 [3]?
A: Its IC50 is 128 µM.

Q: With CC[C@H]1CN2CCc3cc(OC)c(OC)cc3[C@@H]2C[C@@H]1CC1=NCCc2cc(O)c(OC)cc21 [PSYCHOTRINE] as the molecule, how does the IC50 ([1]; read-out: IC50 (converted)) read?
A: Its IC50 is > 430 µM.

Q: And the inhibition [2]?
A: Its inhibition is 20%.

Q: COc1ccc2c(c1OC)CN1CCc3cc4c(cc3C1C2)OCO4 (configuration not stated) [TETRAHYDROBERBERINE] was tested. Which IC50 ([1]; read-out: IC50 (converted)) did it give?
A: Its IC50 is > 589 µM.

Q: What about the inhibition [2] of the same molecule?
A: The inhibition was 25%.

Q: What does the source list for COc1cc2c(cc1OC)[C@@H]1Cc3ccc(OC)c(O)c3CN1CC2 [TETRAHYDROPALMATRUBINE]?
A: IC50 ([1]; read-out: IC50 (converted)): > 586 µM; inhibition [2]: 25%

Q: For CC[C@]1(O)C[C@H]2CN(CCc3c([nH]c4ccccc34)[C@@](C(=O)OC)(c3cc4c(cc3OC)N(C=O)[C@H]3[C@@](O)(C(=O)OC)[C@H](OC(C)=O)[C@]5(CC)C=CCN6CC[C@]43[C@@H]65)C2)C1 [VINCRISTINE], which IC50 ([1]; read-out: IC50 (converted)) is on record?
A: Its IC50 is > 242 µM.

Q: With CC[C@]12CN3CCc4c([nH]c5ccccc45)[C@@](C(=O)OC)(c4cc5c(cc4OC)N(C)[C@H]4[C@@](O)(C(=O)OC)[C@H](OC(C)=O)[C@]6(CC)C=CCN7CC[C@]54[C@@H]76)C[C@@H](C3)[C@H]1O2 [VINLEUROSINE SULFATE] as the molecule, how does the IC50 ([1]; read-out: IC50 (converted)) read?
A: Its IC50 is > 233 µM.

Q: CC1(C)CC[C@]2(C)CC[C@]3(C)C(=CC[C@@H]4[C@@]5(C)CC[C@H](O)C(C)(C)[C@@H]5CC[C@]43C)[C@@H]2C1 [beta-AMYRIN] was tested. Which IC50 ([1]; read-out: IC50 (converted)) did it give?
A: The IC50 was > 469 µM.

Q: How did the IC50 [1] turn out when RAUWOLFIA SERPENTINA was run?
A: Its IC50 is > 200 µg/mL.
